We go through 9 compounds from ChEMBL document CHEMBL1926644, “Novel substrate-based inhibitors of human glutamate carboxypeptidase II with enhanced lipophilicity” (J Med Chem, 2011).

The target in one assay is Glutamate carboxypeptidase 2 (Homo sapiens, UniProt Q04609). Briefly: Inhibition of glutamate carboxypeptidase 2 in human LNCAP cells assessed as glutamate formation using NAAG as substrate after 60 mins by fluorometric analysis. The assay is classed as cell-based.
Chain of Glutamate carboxypeptidase 2 (Q04609 whole entry): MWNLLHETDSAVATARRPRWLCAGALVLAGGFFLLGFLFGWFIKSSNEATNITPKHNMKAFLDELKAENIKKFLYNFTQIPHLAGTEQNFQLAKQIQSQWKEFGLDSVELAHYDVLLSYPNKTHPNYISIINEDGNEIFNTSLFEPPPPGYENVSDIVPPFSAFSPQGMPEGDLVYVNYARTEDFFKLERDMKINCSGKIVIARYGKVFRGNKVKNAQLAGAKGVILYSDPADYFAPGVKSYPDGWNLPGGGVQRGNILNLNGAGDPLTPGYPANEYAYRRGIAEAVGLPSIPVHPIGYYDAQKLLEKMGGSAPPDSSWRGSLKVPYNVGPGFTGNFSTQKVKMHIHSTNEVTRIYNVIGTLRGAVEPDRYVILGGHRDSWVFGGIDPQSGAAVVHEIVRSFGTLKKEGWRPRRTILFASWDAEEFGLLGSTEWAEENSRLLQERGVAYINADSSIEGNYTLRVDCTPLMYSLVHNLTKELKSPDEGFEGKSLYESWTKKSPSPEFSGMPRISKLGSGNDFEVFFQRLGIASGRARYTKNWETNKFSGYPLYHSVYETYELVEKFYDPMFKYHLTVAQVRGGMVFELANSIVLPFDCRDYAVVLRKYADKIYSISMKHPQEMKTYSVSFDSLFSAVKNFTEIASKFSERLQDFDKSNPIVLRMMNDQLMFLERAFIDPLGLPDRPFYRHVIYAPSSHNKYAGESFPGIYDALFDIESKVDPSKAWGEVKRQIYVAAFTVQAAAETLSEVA
For the compound `CCCC[C@H](NC(=O)N[C@@H](CCCCNC(=O)c1ccc(I)cc1)C(=O)O)C(=O)O`, the Ki worked out at 56 nM.

`CCCCCCC[C@H](NC(=O)N[C@@H](CCCCNC(=O)c1ccc(I)cc1)C(=O)O)C(=O)O`: the Ki amounted to 29 nM.

With `CC[C@H](NC(=O)N[C@@H](CCCCNC(=O)c1ccc(I)cc1)C(=O)O)C(=O)O`, the Ki was found to be 121 nM.

For the compound `CCCCC[C@H](NC(=O)N[C@@H](CCCCNC(=O)c1ccc(I)cc1)C(=O)O)C(=O)O`, the inhibition constant Ki turned out to be 20 nM.

In the case of `O=C(O)CNC(=O)N[C@@H](CCCCNC(=O)c1ccc(I)cc1)C(=O)O`, the Ki came to 4390 nM.

Take `CCCCCC[C@H](NC(=O)N[C@@H](CCCCNC(=O)c1ccc(I)cc1)C(=O)O)C(=O)O`: the Ki is 72 nM.

On to `C[C@H](NC(=O)N[C@@H](CCCCNC(=O)c1ccc(I)cc1)C(=O)O)C(=O)O`, for which the inhibition constant (Ki) stood at 325 nM.

`CCC[C@H](NC(=O)N[C@@H](CCCCNC(=O)c1ccc(I)cc1)C(=O)O)C(=O)O`: the inhibition constant (Ki) worked out at 145 nM.

The next assay is filed under the species Homo sapiens. Briefly: Ratio of Km for wild type recombinant human glutamate carboxypeptidase 2 to Km for recombinant human glutamate carboxypeptidase 2 K699S mutant.
As to `CCCCCCCC(NC(=O)[C@H](CC(=O)O)NC(C)=O)C(=O)O` (mixture of isomers), the Ratio was 3.
